Experimental data taken from patent US12503473B2, “Triazolopyrimidine compounds and their use in treating cancer” (Dizal (Jiangsu) Pharmaceutical Co., Ltd., priority 2018, dated 2025).

Legend:
MCT4 [1] = biological target: T1, MCT4 (Homo sapiens, UniProt O15427); assay: cell-based
T1 sequence (O15427 1-465): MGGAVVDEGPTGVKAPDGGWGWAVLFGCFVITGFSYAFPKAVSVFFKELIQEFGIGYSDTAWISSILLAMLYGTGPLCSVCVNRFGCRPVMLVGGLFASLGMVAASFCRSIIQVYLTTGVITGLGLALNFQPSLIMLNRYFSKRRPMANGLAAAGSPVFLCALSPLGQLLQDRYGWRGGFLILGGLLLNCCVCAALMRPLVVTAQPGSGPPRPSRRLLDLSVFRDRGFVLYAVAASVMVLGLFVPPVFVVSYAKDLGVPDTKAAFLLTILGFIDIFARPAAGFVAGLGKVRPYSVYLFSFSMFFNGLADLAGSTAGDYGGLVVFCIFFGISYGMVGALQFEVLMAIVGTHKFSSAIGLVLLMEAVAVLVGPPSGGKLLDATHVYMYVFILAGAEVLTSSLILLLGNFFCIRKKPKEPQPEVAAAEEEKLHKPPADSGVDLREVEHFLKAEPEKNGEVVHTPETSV
Experimental: (§1) Cells were loaded with the pH sensitive dye BCECFAM(Invitrogen #B11150) before being washed to remove excess dye and seeded into the assay plates—directly onto the test compound—at a density of 15,000 cells/well (NCI—H358) or 30,000 cells/well (K562), in 30 μl HBSS with 1 mM [final] […] Assay plates were lidded and spun in a plate centrifuge at 170 g for 1 minute. Plates were then wrapped in foil and incubated in the dark for 1 hour at room temperature.
(§2) Following incubation with test compound, 10 μl of 25 mM Sodium-L-Lactate (Sigma #L7022) made up in HBSS with 1 mM [final] […] This addition was performed directly on the FLIPR Tetra platform (Molecular Devices) as part of a real-time kinetic read protocol. […] A percentage change from base-line was calculated for each test well and values normalised to control wells—treated with either DMSO (maximum assay signal) or chemistry related to that described in this patent (minimum assay signal)—before fitting concentration response curves to determine an IC50 value.

MCT1 = biological target: T2, MCT1 (Homo sapiens, UniProt P53985); assay: Assay (c): FLIPR BCECF lactate influx in K562 cells; format: cell-based; details: mean of at least three repeats, read-out: MCT1 FLIPR pIC50 (K562) (converted)
T2 construct: a human erythroleukemia line predominantly expressing MCT1, a small amount of MCT2 and no MCT4; host or cells: K562
T2 sequence (P53985 1-500): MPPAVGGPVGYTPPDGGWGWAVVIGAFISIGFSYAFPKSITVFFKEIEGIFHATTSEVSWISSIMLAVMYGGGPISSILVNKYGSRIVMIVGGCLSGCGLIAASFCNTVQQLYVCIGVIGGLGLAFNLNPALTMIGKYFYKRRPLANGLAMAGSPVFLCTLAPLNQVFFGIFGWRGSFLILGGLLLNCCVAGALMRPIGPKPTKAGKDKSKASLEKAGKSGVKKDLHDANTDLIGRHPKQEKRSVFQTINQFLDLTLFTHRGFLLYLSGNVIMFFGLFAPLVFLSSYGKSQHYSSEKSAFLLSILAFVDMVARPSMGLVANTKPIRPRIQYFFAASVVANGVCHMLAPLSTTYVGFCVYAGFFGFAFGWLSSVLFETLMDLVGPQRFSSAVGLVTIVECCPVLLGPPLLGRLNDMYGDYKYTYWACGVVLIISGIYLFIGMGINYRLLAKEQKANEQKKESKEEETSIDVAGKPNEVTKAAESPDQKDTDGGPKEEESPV
Experimental: as §1, §2

MCT4 [2] = biological target: T1, MCT4; assay: Assay (a): lactate efflux from SK-Br-3 cells (lactate in media, 4 h); format: cell-based; parameters: a natively glycolytic human breast adenocarcinoma line predominantly expressing MCT4; host or cells: SK-Br-3; details: mean of at least three repeats (Example 32, marked *, two repeats), read-out: MCT4 lactate efflux pIC50 (SKBR3) (converted)
Experimental: Assay plates were lidded and incubated for 4 hours at 37° C. and 5% CO2.

MCT4 [3] = biological target: T1, MCT4; assay: Assay (d): FLIPR BCECF lactate influx in INS-1 MCT4 cells; format: cell-based, rat; parameters: expressed in transfected cells; details: INS-1 cells stably expressing human MCT4; mean of at least three repeats; read-out: MCT4 FLIPR pIC50 (INS-1) (converted)
Experimental: INS-1 MCT4 cells were generated through transfection of the parental cell background with the following DNA sequence, inserted into a pcDNA3.1 (ThermoFisher #V79020) mammalian expression vector:
The resultant cell pool was continually cultured at 37° C. and 5% CO2 under antibiotic selection in RPMI (Sigma #R0883) medium containing 1% L glutamine (Sigma #G7513), 10% FBS (Sigma #F7524), 10 mM [final] […] An individual clone was selected and expanded before being cryopreserved in a number of individual vials for continued use. Prior to testing in the biological assay, an individual INS-1 MCT4 cryovial was defrosted and continually passaged over a number of weeks—in the Geneticin selection media described previously—to obtain the requesite cell number.

[4] = system: NCI H358 subcutaneous xenograft; assay: Human lung cancer xenograft model, VEGFR TKI combination; format: in vivo, female nude mice; details: AZD2171 alone 3 mg/kg QD oral, 17 days dosing; p<0.001
Experimental: The in vivo efficacy of MCT4 inhibitors has been tested in human xenograft models. The NSCLC cell line NCI H358 can be grown as a subcutaneous xenograft in female nude mice and tumour volume calculated from bilateral caliper measurements. For efficacy studies three million NCI H358 cells were inoculated sub-cutaneously onto the left flank of the animal in a volume of 0.1 ml serum free media (RPMI) and matrigel. Animals were assigned into treatment groups 14 days after cell implantation and received either AZD2171 (3 mg/kg QD) (Wedge et al., (2005) Cancer Res. 65:4389-4400), a compound of Formula (I) (100 mg/kg BID) or the combination of both by oral gavage. A vehicle control of 0.5% hydroxy propyl methyl cellulose/0.1% Tween 80 was dosed twice daily given orally. Dosing was continued for 17 days and tumour volume, body weight and tumour condition were recorded twice weekly for the duration of the study.

SMILES	IC50 (MCT4 [1]) [nM]	IC50 (MCT1) [nM]	IC50 (MCT4 [2]) [nM]	IC50 (MCT4 [3]) [nM]	tumour regression compared to the vehicle group [4] [%]
COCCN1CCN(Cc2ccc(-c3ccc(N4CC[C@@H](Oc5c(C)nc6nc(C)nn6c5C)C4)cc3)nn2)CC1 [Example 73, (R)-6-((1-(4-(6-((4-(2-methoxyethyl)piperazin-1-yl)methyl)pyridazin-3-yl)phenyl)pyrrolidin-3-yl)oxy)-2,5,7-trimethyl-[1,2,4]triazolo[1,5-a]pyrimidine]	50.1	> 25100	3.16	31.6	
Cc1nc2nc(C)c(O[C@@H]3CCN(c4cnc(-c5ccc(C(C)N6CCOCC6)cc5)cn4)C3)c(C)n2n1 (single isomer, unassigned) [Example 87]	12.6	> 25100	1.26	3.98	
Cc1nc2nc(C)c(O[C@@H]3CCN(c4ccc(-c5ccc(CN6CCOCC6)nc5)cn4)C3)c(C)n2n1 [Example 75, (R)-4-((6′-(3-((2,5,7-trimethyl-[1,2,4]triazolo[1,5-a]pyrimidin-6-yl)oxy)pyrrolidin-1-yl)-[3,3′-bipyridin]-6-yl)methyl)morpholine]	12.6	> 25100	3.16	3.16	
Cc1nc2nc(C)c(O[C@@H]3CCN(c4ccc(-c5cnc(CN6CCOCC6)nc5)cc4)C3)c(C)n2n1 [Example 69, (R)-4-((5-(4-(3-((2,5,7-trimethyl-[1,2,4]triazolo[1,5-a]pyrimidin-6-yl)oxy)pyrrolidin-1-yl)phenyl)pyrimidin-2-yl)methyl)morpholine]	12.6	> 25100	2	3.16	
Cc1nc2nc(C)c(O[C@@H]3CCN(c4ccc(-c5ccc(CN6C7CCC6CN(C)C7)nn5)cc4)C3)c(C)n2n1 [Example 66, 2,5,7-trimethyl-6-(((3R)-1-(4-(6-((3-methyl-3,8-diazabicyclo[3.2.1]octan-8-yl)methyl)pyridazin-3-yl)phenyl)pyrrolidin-3-yl)oxy)-[1,2,4]triazolo[1,5-a]pyrimidine]	50.1	> 25100	2	25.1	
Cc1nc2nc(C)c(O[C@@H]3CCN(c4ccc(-c5ccc(CN6CCCCCC6)nn5)cc4)C3)c(C)n2n1 [Example 85, (R)-6-((1-(4-(6-(azepan-1-ylmethyl)pyridazin-3-yl)phenyl)pyrrolidin-3-yl)oxy)-2,5,7-trimethyl-[1,2,4]triazolo[1,5-a]pyrimidine]	20	> 25100	1.26	6.31	
Cc1nc2nc(C)c(O[C@@H]3CCN(c4ccc(-c5ccc(CN6CCCOCC6)nn5)cc4)C3)c(C)n2n1 [Example 84, (R)-4-((6-(4-(3-((2,5,7-trimethyl-[1,2,4]triazolo[1,5-a]pyrimidin-6-yl)oxy)pyrrolidin-1-yl)phenyl)pyridazin-3-yl)methyl)-1,4-oxazepane]	7.94	> 25100	1	3.98	
Cc1nc2nc(C)c(O[C@@H]3CCN(c4ccc(-c5ccc(CN6CCCCC6)nn5)cc4)C3)c(C)n2n1 [Example 64, (R)-2,5,7-trimethyl-6-((1-(4-(6-(piperidin-1-ylmethyl)pyridazin-3-yl)phenyl)pyrrolidin-3-yl)oxy)-[1,2,4]triazolo[1,5-a]pyrimidine]	50.1	> 25100	1.58	15.8	
COc1cc2c(Oc3ccc4[nH]c(C)cc4c3F)ncnc2cc1OCCCN1CCCC1 [AZD2171, reference compound]					33
Cc1nc2nc(C)c(O[C@@H]3CCN(c4cnc(-c5ccc([C@@H](C)N6CCOCC6)cc5)cn4)C3)c(C)n2n1 (single isomer, unassigned) [Example 86]	12.6	> 25100	2.51	3.16	
Cc1nc2nc(C)c(C[C@@H]3CCN(c4cnc(-c5ccc(CN6CCCC6)cn5)cn4)C3)c(C)n2n1 [Example 81, (R)-2,5,7-trimethyl-6-((1-(5-(5-(pyrrolidin-1-ylmethyl)pyridin-2-yl)pyrazin-2-yl)pyrrolidin-3-yl)methyl)-[1,2,4]triazolo[1,5-a]pyrimidine]	15.8	5010	3.16	3.16	
Cc1nc2nc(C)c(O[C@@H]3CCN(c4ccc(-c5ccc(CN6CCOCC6)cn5)cn4)C3)c(C)n2n1 [Example 74, (R)-4-((6′-(3-((2,5,7-trimethyl-[1,2,4]triazolo[1,5-a]pyrimidin-6-yl)oxy)pyrrolidin-1-yl)-[2,3′-bipyridin]-5-yl)methyl)morpholine]	10	> 25100	2	2	
COCCN1CCN(Cc2ccc(-c3cnc(N4CC[C@@H](Cc5c(C)nc6nc(C)nn6c5C)C4)cn3)cc2)CC1 [Example 42, (R)-6-((1-(5-(4-((4-(2-methoxyethyl)piperazin-1-yl)methyl)phenyl)pyrazin-2-yl)pyrrolidin-3-yl)methyl)-2,5,7-trimethyl-[1,2,4]triazolo[1,5-a]pyrimidine]	10	> 25100	0.794	6.31	
Cc1nc2nc(C)c(O[C@@H]3CCN(c4ccc(-c5cnc(CN6CCOCC6)cn5)cc4)C3)c(C)n2n1 [Example 70, (R)-4-((5-(4-(3-((2,5,7-trimethyl-[1,2,4]triazolo[1,5-a]pyrimidin-6-yl)oxy)pyrrolidin-1-yl)phenyl)pyrazin-2-yl)methyl)morpholine]	5.01	> 25100	0.631	1.58	
